# Reference: patent US20030220211A1, “Methods, compositions, and articles for control of malodor produced by urea-containing body fluids” (The Procter & Gamble Company, priority 2000, published 2003)
# Assays:
# [1] = molecular target: T1, Urease (Type III from jack beans) (Canavalia ensiformis, UniProt P07374); experiment: Ammonia odor detection on paper towel sheets treated with urea and urease solution; type: biochemical; conditions: paper towel sheet, 15 drops CuHEDTA Test Solution (urea 2M/tris + Cu/HEDTA complex solution 125 mM) + 2 drops urease solution; after 30 minutes at room temperature; smell
# T1 construct: purchased Sigma U-1500
# T1 sequence (P07374 whole entry, looked up): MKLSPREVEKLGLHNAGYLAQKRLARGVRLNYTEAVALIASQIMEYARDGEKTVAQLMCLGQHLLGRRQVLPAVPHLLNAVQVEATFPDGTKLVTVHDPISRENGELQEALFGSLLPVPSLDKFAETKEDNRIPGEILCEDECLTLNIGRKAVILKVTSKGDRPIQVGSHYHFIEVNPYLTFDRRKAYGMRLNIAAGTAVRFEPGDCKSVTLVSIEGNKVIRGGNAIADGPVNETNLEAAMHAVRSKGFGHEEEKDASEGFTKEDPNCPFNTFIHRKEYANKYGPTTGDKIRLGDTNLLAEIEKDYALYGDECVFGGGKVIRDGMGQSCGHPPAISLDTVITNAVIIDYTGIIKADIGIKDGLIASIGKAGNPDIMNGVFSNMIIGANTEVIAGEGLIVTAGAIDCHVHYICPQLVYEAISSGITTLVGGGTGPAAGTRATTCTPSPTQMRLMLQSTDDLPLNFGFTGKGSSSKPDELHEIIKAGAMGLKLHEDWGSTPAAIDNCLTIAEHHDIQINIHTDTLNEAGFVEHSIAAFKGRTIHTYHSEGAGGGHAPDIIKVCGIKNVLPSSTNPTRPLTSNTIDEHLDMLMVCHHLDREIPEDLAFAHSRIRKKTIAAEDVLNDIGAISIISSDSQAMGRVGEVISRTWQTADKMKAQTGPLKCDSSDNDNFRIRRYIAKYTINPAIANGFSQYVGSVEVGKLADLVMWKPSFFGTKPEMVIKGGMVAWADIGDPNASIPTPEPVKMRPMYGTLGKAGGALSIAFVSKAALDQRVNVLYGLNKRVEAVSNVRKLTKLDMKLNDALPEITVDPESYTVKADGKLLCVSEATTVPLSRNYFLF
# Protocol: In such a test, conventional paper towel sheets are treated with both a urea solution and a urease solution. One such sheet serves as a reference sheet; another such sheet is treated with a urease solution which also contains a complex of copper chelated with N-(2-hydroxyethyl)ethylenediamine triacetic acid. After 30 minutes at room temperature, the sheets are evaluated for detectable ammonia order.
# Dissolve 2.42 g of trizma-base in about 80 mL H2O deionized, adjust the pH to 7.5 with HCL 1M, bring to 100 mL with H2O deionized.
# Dissolve 6 g of Urea in 50 mL of this buffer 0.2M, pH 7.5
# Dissolve 2.13 g of CuCl in 50 mL of H2O deionized.
# Dissolve 2.15 g of HEDTA in 25 mL of H2O deionized
# Cu/HEDTA complex solution (125 mM)
# Mix 25 ml of CuCl2 solution (250 mM) with 25 mL HEDTA solution (250 mM)at adjusted with NaOH to pH around 7
# Urease solution (10 mg/mL)
# Weigh 0.020 g of urease and add 3 mL of tris buffer pH 7.5, 0.2M. This solution is stable for about 1 week provided it is stored at 4° C. in a refrigerator.
# 10 mL urea 2M/tris+500 mL of H2O deionized buffer.
# 10 mL Urea 2M/tris+500 mL Cu/TED complex solution buffer (125 mM)
# Half of a white BOUNTY™® towel sheet is put in each of two Petri dishes. Into one dish, 15 drops of the reference solution are poured evenly so that the center of the towel sheet is evenly wet. […]
# urine malodor = conditions: 5 mMol/liter solution, 250 ml sprayed once per day for 11 days over 4 m^2 (105 mg/m^2)
# Protocol: A liquid product for treating hard surfaces is prepared and tested by spraying the product on walls, floors and other surfaces surrounding the urinals in a public men's restroom. Product preparation, use and test results are as follows:
# A 5 mMol/liter solution of CuHEDTA is prepared from:
# 1721 mg of HEDTA (trisodium salt hydrate, MW=344.21);
# 1250 mg of CuSO4 (pentahydrate, MW=250);
# 1000 ml of deionized water.
# Using a spray-gun, 250 ml of this solution is sprayed once per day for 11 days over a 4 m^2 area surrounding the urinals in a public men's restroom.
smiles,measurement,setting,value
"O=C([O-])CN(CCN(CCO)CC(=O)O)CC(=O)[O-].[Cu+2] [CuHEDTA, copper salt of N-hydroxyethyl-ethylenediamine-triacetic acid]",detectable ammonia odor,[1],No ammonia odor is detectable
same,urine malodor control in the men's restroom,urine malodor,effectively controlled for the full 11 day period
